Details: Liquid, Vibrating tube method

CCC(C)O (stereo not drawn) [butan-2-ol]
Details | mass density [kg/m3]
323.15 K, 57941 kPa | 822.2
323.15 K, 65042 kPa | 826.2
323.16 K, 83 kPa | 780.1
323.16 K, 310 kPa | 780.3
323.16 K, 904 kPa | 780.9
323.16 K, 2023 kPa | 781.9
323.16 K, 2969 kPa | 782.8
323.16 K, 22069 kPa | 798.7
323.16 K, 30034 kPa | 804.5
323.16 K, 32030 kPa | 805.9
323.16 K, 33179 kPa | 806.7
323.16 K, 34081 kPa | 807.3
323.16 K, 35135 kPa | 808
323.16 K, 44962 kPa | 814.4
323.16 K, 48021 kPa | 816.3
323.16 K, 55018 kPa | 820.5
323.16 K, 60048 kPa | 823.4
323.16 K, 62109 kPa | 824.6
323.16 K, 66222 kPa | 826.9
328.15 K, 97 kPa | 775.5
328.15 K, 549 kPa | 775.9
328.15 K, 2980 kPa | 778.3
328.15 K, 6989 kPa | 782.1
328.15 K, 9026 kPa | 784
328.15 K, 10174 kPa | 785
328.15 K, 15005 kPa | 789.1
328.15 K, 17974 kPa | 791.5
328.15 K, 22112 kPa | 794.8
328.15 K, 28057 kPa | 799.3
328.15 K, 30020 kPa | 800.7
328.15 K, 32096 kPa | 802.2
328.15 K, 33090 kPa | 802.9
328.15 K, 34106 kPa | 803.6
328.15 K, 38003 kPa | 806.3
328.15 K, 40189 kPa | 807.7
328.15 K, 42227 kPa | 809.1
328.16 K, 325 kPa | 775.7
328.16 K, 909 kPa | 776.3
328.16 K, 1025 kPa | 776.4
328.16 K, 2032 kPa | 777.5
328.16 K, 4986 kPa | 780.3
328.16 K, 12064 kPa | 786.6
328.16 K, 20081 kPa | 793.3
328.16 K, 25008 kPa | 797.1
328.16 K, 33187 kPa | 802.9
328.16 K, 35148 kPa | 804.3
328.16 K, 45203 kPa | 811.1
328.16 K, 48119 kPa | 812.8
328.16 K, 50027 kPa | 814
328.16 K, 52217 kPa | 815.4
328.16 K, 55140 kPa | 817.1
328.16 K, 58016 kPa | 818.7
328.16 K, 59968 kPa | 819.8
328.16 K, 61968 kPa | 820.9
328.16 K, 65013 kPa | 822.7
328.16 K, 66143 kPa | 823.3
333.15 K, 100 kPa | 770.5
333.15 K, 350 kPa | 770.7
333.15 K, 494 kPa | 770.9
333.15 K, 901 kPa | 771.3
333.15 K, 1016 kPa | 771.5
333.15 K, 2000 kPa | 772.4
333.15 K, 3021 kPa | 773.4
333.15 K, 5004 kPa | 775.4
333.15 K, 7066 kPa | 777.4
333.15 K, 8994 kPa | 779.1
333.15 K, 10031 kPa | 780
333.15 K, 11980 kPa | 781.8
333.15 K, 15020 kPa | 784.5
333.15 K, 17985 kPa | 786.9
333.15 K, 22042 kPa | 790.2
333.15 K, 25059 kPa | 792.7
333.15 K, 28048 kPa | 794.9
333.15 K, 29961 kPa | 796.3
333.15 K, 32126 kPa | 798
333.15 K, 32780 kPa | 798.4
333.15 K, 32804 kPa | 798.4
333.15 K, 33981 kPa | 799.2
333.15 K, 35081 kPa | 800
333.15 K, 38040 kPa | 802.1
333.15 K, 39970 kPa | 803.4
333.15 K, 45112 kPa | 806.9
333.15 K, 47953 kPa | 808.7
333.15 K, 50048 kPa | 810.1
333.15 K, 52052 kPa | 811.3
333.15 K, 55007 kPa | 813.2
333.15 K, 62024 kPa | 817.4
333.15 K, 64970 kPa | 819.1
333.15 K, 66117 kPa | 819.8
333.16 K, 20151 kPa | 788.8
333.16 K, 42099 kPa | 804.9
333.16 K, 58002 kPa | 815
333.16 K, 60019 kPa | 816.2
338.15 K, 99 kPa | 765.5
338.15 K, 292 kPa | 765.7
338.15 K, 539 kPa | 766
338.15 K, 892 kPa | 766.4
338.15 K, 1007 kPa | 766.5
338.15 K, 3160 kPa | 768.7
338.15 K, 4911 kPa | 770.5
338.15 K, 10039 kPa | 775.5
338.15 K, 12002 kPa | 777.3
338.15 K, 15149 kPa | 780.1
338.15 K, 18051 kPa | 782.6
338.15 K, 19986 kPa | 784.2
338.15 K, 21999 kPa | 785.9
338.15 K, 32975 kPa | 794.4
338.15 K, 35130 kPa | 796
338.15 K, 40077 kPa | 799.5
338.15 K, 44943 kPa | 802.8
338.15 K, 48022 kPa | 804.9
338.15 K, 52052 kPa | 807.5
338.15 K, 55069 kPa | 809.5
338.15 K, 58033 kPa | 811.3
338.15 K, 60108 kPa | 812.6
338.15 K, 62047 kPa | 813.7
338.15 K, 65005 kPa | 815.5
338.15 K, 66128 kPa | 816.2
338.16 K, 2082 kPa | 767.6
338.16 K, 6964 kPa | 772.5
338.16 K, 8976 kPa | 774.5
338.16 K, 24990 kPa | 788.3
338.16 K, 27960 kPa | 790.7
338.16 K, 30065 kPa | 792.3
338.16 K, 31895 kPa | 793.7
338.16 K, 32982 kPa | 794.5
338.16 K, 33953 kPa | 795.1
338.16 K, 37933 kPa | 798
338.16 K, 41987 kPa | 800.8
338.16 K, 50029 kPa | 806.2
343.15 K, 90 kPa | 760.2
343.15 K, 290 kPa | 760.5
343.15 K, 469 kPa | 760.6
343.15 K, 910 kPa | 761.1
343.15 K, 1032 kPa | 761.3
343.15 K, 1994 kPa | 762.3
343.15 K, 4978 kPa | 765.5
343.15 K, 7040 kPa | 767.6
343.15 K, 9056 kPa | 769.6
343.15 K, 10137 kPa | 770.7
343.15 K, 12089 kPa | 772.5
343.15 K, 14318 kPa | 774.6
343.15 K, 15186 kPa | 775.4
343.15 K, 17997 kPa | 777.9
343.15 K, 19975 kPa | 779.7
343.15 K, 22054 kPa | 781.5
343.15 K, 25145 kPa | 784.1
343.15 K, 27969 kPa | 786.3
343.15 K, 30130 kPa | 788.1
343.15 K, 31848 kPa | 789.4
343.15 K, 32904 kPa | 790.1
343.15 K, 33014 kPa | 790.3
343.15 K, 33950 kPa | 790.9
343.15 K, 35008 kPa | 791.7
343.15 K, 38168 kPa | 794.1
343.15 K, 39957 kPa | 795.4
343.15 K, 42001 kPa | 796.8
343.15 K, 44975 kPa | 798.9

From the NIST ThermoML archive (doi:10.1021/acs.jced.5b00934)
